Laboratory results reported in PubChem BioAssay (NCI).
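Method: 48-hour compound exposure of cells in 96-well plates, five concentrations, linear interpolation of endpoints. TGI marks complete inhibition of growth.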

Tests used:
Assay in all cases: NCI anticancer screen, dose series, 48 h
U251 CNS = system: U251 CNS
HCC-2998 colon = system: HCC-2998 colon
TK-10 renal = system: TK-10 renal
MDA-MB-231 breast = system: MDA-MB-231 breast
COLO 205 colon = system: COLO 205 colon
UACC-62 melanoma = system: UACC-62 melanoma
SNB-75 CNS = system: SNB-75 CNS
RXF 393 renal = system: RXF 393 renal
NCI-H226 lung = system: NCI-H226 lung
SK-MEL-2 melanoma = system: SK-MEL-2 melanoma
K-562 leukemia = system: K-562 leukemia
PC-3 prostate = system: PC-3 prostate
ACHN renal = system: ACHN renal
KM12 colon = system: KM12 colon
CAKI-1 renal = system: CAKI-1 renal
HOP-62 NSCLC = system: HOP-62 NSCLC
A498 renal = system: A498 renal
SF-295 CNS = system: SF-295 CNS
A549 NSCLC = system: A549 NSCLC
NCI-H23 lung = system: NCI-H23 lung
SW-620 colon = system: SW-620 colon
UACC-257 melanoma = system: UACC-257 melanoma
SK-MEL-28 melanoma = system: SK-MEL-28 melanoma
HS 578T breast = system: HS 578T breast
MDA-MB-435 = system: MDA-MB-435
HCT-15 colon = system: HCT-15 colon
NCI-H522 lung = system: NCI-H522 lung
SK-MEL-5 melanoma = system: SK-MEL-5 melanoma
OVCAR-3 ovarian = system: OVCAR-3 ovarian
T-47D breast = system: T-47D breast
SN12C renal = system: SN12C renal
OVCAR-4 ovarian = system: OVCAR-4 ovarian
OVCAR-5 ovarian = system: OVCAR-5 ovarian
M14 melanoma = system: M14 melanoma
NCI-H460 lung = system: NCI-H460 lung
SR leukemia = system: SR leukemia
MALME-3M melanoma = system: MALME-3M melanoma
EKVX NSCLC = system: EKVX NSCLC
786-0 renal = system: 786-0 renal
SNB-19 CNS = system: SNB-19 CNS
LOX IMVI melanoma = system: LOX IMVI melanoma
SF-268 CNS = system: SF-268 CNS
NCI/ADR-RES ovarian = system: NCI/ADR-RES ovarian
HL-60(TB) leukemia = system: HL-60(TB) leukemia
SK-OV-3 ovarian = system: SK-OV-3 ovarian
MDA-N = system: MDA-N
HCT-116 colon = system: HCT-116 colon
OVCAR-8 ovarian = system: OVCAR-8 ovarian
HT29 colon = system: HT29 colon
IGROV1 ovarian = system: IGROV1 ovarian
SF-539 CNS = system: SF-539 CNS
CCRF-CEM leukemia = system: CCRF-CEM leukemia
RPMI-8226 leukemia = system: RPMI-8226 leukemia
DU-145 prostate = system: DU-145 prostate
HOP-92 NSCLC = system: HOP-92 NSCLC
MCF7 breast = system: MCF7 breast
MOLT-4 leukemia = system: MOLT-4 leukemia
UO-31 renal = system: UO-31 renal

Structure (SMILES): N#CC(=N)c1ncn(CCO)c1NC(=O)C(F)(F)F
- TGI (U251 CNS): > 100 µM
- TGI (HCC-2998 colon): > 100 µM
- TGI (TK-10 renal): > 100 µM
- TGI (MDA-MB-231 breast): > 100 µM
- TGI (COLO 205 colon): > 100 µM
- TGI (UACC-62 melanoma): > 100 µM
- TGI (SNB-75 CNS): > 100 µM
- TGI (RXF 393 renal): > 100 µM
- TGI (NCI-H226 lung): > 100 µM
- TGI (SK-MEL-2 melanoma): > 100 µM
- TGI (K-562 leukemia): > 100 µM
- TGI (PC-3 prostate): > 100 µM
- TGI (ACHN renal): > 100 µM
- TGI (KM12 colon): > 100 µM
- TGI (CAKI-1 renal): > 100 µM
- TGI (HOP-62 NSCLC): > 100 µM
- TGI (A498 renal): > 100 µM
- TGI (SF-295 CNS): > 100 µM
- TGI (A549 NSCLC): > 100 µM
- TGI (NCI-H23 lung): > 100 µM
- TGI (SW-620 colon): > 100 µM
- TGI (UACC-257 melanoma): > 100 µM
- TGI (SK-MEL-28 melanoma): > 100 µM
- TGI (HS 578T breast): > 100 µM
- TGI (MDA-MB-435): > 100 µM
- TGI (HCT-15 colon): > 100 µM
- TGI (NCI-H522 lung): > 100 µM
- TGI (SK-MEL-5 melanoma): > 100 µM
- TGI (OVCAR-3 ovarian): > 100 µM
- TGI (T-47D breast): > 100 µM
- TGI (SN12C renal): > 100 µM
- TGI (OVCAR-4 ovarian): > 100 µM
- TGI (OVCAR-5 ovarian): > 100 µM
- TGI (M14 melanoma): > 100 µM
- TGI (NCI-H460 lung): > 100 µM
- TGI (SR leukemia): > 100 µM
- TGI (MALME-3M melanoma): > 100 µM
- TGI (EKVX NSCLC): > 100 µM
- TGI (786-0 renal): > 100 µM
- TGI (SNB-19 CNS): > 100 µM
- TGI (LOX IMVI melanoma): > 100 µM
- TGI (SF-268 CNS): > 100 µM
- TGI (NCI/ADR-RES ovarian): > 100 µM
- TGI (HL-60(TB) leukemia): > 100 µM
- TGI (SK-OV-3 ovarian): > 100 µM
- TGI (MDA-N): > 100 µM
- TGI (HCT-116 colon): > 100 µM
- TGI (OVCAR-8 ovarian): > 100 µM
- TGI (HT29 colon): > 100 µM
- TGI (IGROV1 ovarian): > 100 µM
- TGI (SF-539 CNS): > 100 µM
- TGI (CCRF-CEM leukemia): > 100 µM
- TGI (RPMI-8226 leukemia): > 100 µM
- TGI (DU-145 prostate): > 100 µM

Structure (SMILES): COc1c2c(cc3nc4ccccc4nc13)CC[C@H](NC(C)=O)c1cc(=O)c(SC)ccc1-2
- TGI (U251 CNS): 10.6 µM
- TGI (HCC-2998 colon): > 24.6 µM
- TGI (TK-10 renal): > 59.3 µM
- TGI (MDA-MB-231 breast): 36.1 µM
- TGI (COLO 205 colon): 3.31 µM
- TGI (UACC-62 melanoma): 44.6 µM
- TGI (RXF 393 renal): > 49.9 µM
- TGI (NCI-H226 lung): 32.2 µM
- TGI (SK-MEL-2 melanoma): > 55.2 µM
- TGI (K-562 leukemia): > 42.2 µM
- TGI (PC-3 prostate): > 69.6 µM
- TGI (ACHN renal): > 64.5 µM
- TGI (KM12 colon): 3 µM
- TGI (CAKI-1 renal): > 42.6 µM
- TGI (HOP-62 NSCLC): > 100 µM
- TGI (A498 renal): > 90.9 µM
- TGI (SF-295 CNS): > 44.6 µM
- TGI (A549 NSCLC): > 100 µM
- TGI (NCI-H23 lung): 0.777 µM
- TGI (SW-620 colon): > 100 µM
- TGI (UACC-257 melanoma): 30.5 µM
- TGI (SK-MEL-28 melanoma): > 100 µM
- TGI (HS 578T breast): 0.7 µM
- TGI (HCT-15 colon): 19 µM
- TGI (NCI-H522 lung): 1.69 µM
- TGI (SK-MEL-5 melanoma): 10.8 µM
- TGI (OVCAR-3 ovarian): > 100 µM
- TGI (HOP-92 NSCLC): > 55.9 µM
- TGI (SN12C renal): 34.2 µM
- TGI (OVCAR-4 ovarian): 38.7 µM
- TGI (OVCAR-5 ovarian): > 100 µM
- TGI (M14 melanoma): 19.3 µM
- TGI (NCI-H460 lung): > 100 µM
- TGI (MCF7 breast): > 100 µM
- TGI (MOLT-4 leukemia): > 65.4 µM
- TGI (SR leukemia): > 32.5 µM
- TGI (EKVX NSCLC): 8.63 µM
- TGI (786-0 renal): 39.8 µM
- TGI (SNB-19 CNS): > 100 µM
- TGI (LOX IMVI melanoma): > 71.6 µM
- TGI (SF-268 CNS): > 56.5 µM
- TGI (NCI/ADR-RES ovarian): > 100 µM
- TGI (SK-OV-3 ovarian): > 70.9 µM
- TGI (MDA-N): 0.329 µM
- TGI (HCT-116 colon): 27.3 µM
- TGI (OVCAR-8 ovarian): > 32.7 µM
- TGI (HT29 colon): 6.23 µM
- TGI (IGROV1 ovarian): 4.36 µM
- TGI (SF-539 CNS): 5.28 µM
- TGI (UO-31 renal): 28.7 µM
- TGI (CCRF-CEM leukemia): > 100 µM
- TGI (RPMI-8226 leukemia): > 100 µM
- TGI (DU-145 prostate): 51.3 µM

Structure (SMILES): Nc1nc2c(ncn2CC2CCC(CO)C2)c(=O)[nH]1 (stereo not given)
- TGI (U251 CNS): > 100 µM
- TGI (HCC-2998 colon): > 100 µM
- TGI (TK-10 renal): > 100 µM
- TGI (MDA-MB-231 breast): > 100 µM
- TGI (COLO 205 colon): > 100 µM
- TGI (UACC-62 melanoma): > 100 µM
- TGI (SNB-75 CNS): > 100 µM
- TGI (RXF 393 renal): > 100 µM
- TGI (NCI-H226 lung): > 100 µM
- TGI (SK-MEL-2 melanoma): > 100 µM
- TGI (K-562 leukemia): > 100 µM
- TGI (PC-3 prostate): > 100 µM
- TGI (ACHN renal): > 100 µM
- TGI (KM12 colon): > 100 µM
- TGI (CAKI-1 renal): > 100 µM
- TGI (HOP-62 NSCLC): > 100 µM
- TGI (A498 renal): > 100 µM
- TGI (SF-295 CNS): > 100 µM
- TGI (A549 NSCLC): > 100 µM
- TGI (SW-620 colon): > 100 µM
- TGI (UACC-257 melanoma): > 100 µM
- TGI (SK-MEL-28 melanoma): > 100 µM
- TGI (HS 578T breast): > 100 µM
- TGI (MDA-MB-435): > 100 µM
- TGI (HCT-15 colon): > 100 µM
- TGI (SK-MEL-5 melanoma): > 100 µM
- TGI (OVCAR-3 ovarian): > 100 µM
- TGI (HOP-92 NSCLC): > 100 µM
- TGI (T-47D breast): > 100 µM
- TGI (SN12C renal): > 100 µM
- TGI (OVCAR-4 ovarian): > 100 µM
- TGI (OVCAR-5 ovarian): > 100 µM
- TGI (M14 melanoma): > 100 µM
- TGI (MCF7 breast): > 100 µM
- TGI (EKVX NSCLC): > 100 µM
- TGI (786-0 renal): > 100 µM
- TGI (SNB-19 CNS): > 100 µM
- TGI (LOX IMVI melanoma): > 100 µM
- TGI (SF-268 CNS): > 100 µM
- TGI (NCI/ADR-RES ovarian): > 100 µM
- TGI (SK-OV-3 ovarian): > 100 µM
- TGI (MDA-N): > 100 µM
- TGI (HCT-116 colon): > 100 µM
- TGI (SF-539 CNS): > 100 µM
- TGI (UO-31 renal): > 100 µM
- TGI (CCRF-CEM leukemia): > 100 µM
- TGI (RPMI-8226 leukemia): > 100 µM
- TGI (DU-145 prostate): > 100 µM
